Tests used:
[1] = test system: genotype 1b (Con-1) HCV replicon in Huh-7 cells; assay: HCV replicon luciferase assay; format: cell-based; conditions: 1b replicon, Renilla luciferase, 3 days incubation
Method: The cell lines used to evaluate compounds consist of a human hepatocyte derived cell line (Huh-7) that constitutively expresses a genotype 1b (Con-1) HCV replicon or a genotype 1b (Con-1) HCV replicon with an asparagine replacing the cysteine at amino acid 316, or a genotype 2a (JFH-1) replicon, containing a Renilla luciferase reporter gene. These cells were maintained in Dulbecco's modified Eagle medium (DMEM) containing 10% FBS, 100 U/mL penicillin/streptomycin and 1.0 mg/mL G418.
To evaluate compound efficacy, titrated compounds were transferred to sterile 384-well tissue culture treated plates, and the plates were seeded with HCV replicon cells ([…] at a density of 2.4×10^3 cells/well) in DMEM containing 4% FBS (final DMSO concentration at 0.5%). After 3 days incubation at 37° C., cells were analyzed for Renilla Luciferase activity using the EnduRen substrate (Promega cat #E6485) according to the manufacturer's directions. Briefly, the EnduRen substrate was diluted in DMEM and then added to the plates to a final concentration of 7.5 μM. The plates were incubated for at least 1 h at 37° C. then read on a Viewlux Imager (PerkinElmer) using a luminescence program. The 50% effective concentration (EC50) was calculated using the four-parameter logistic formula noted above.

[2] = biological target: T1, HCV NS5B genotype 1b (Con1) (Hepatitis C virus genotype 1b, UniProt Q9WMX2); assay: HCV NS5B RdRp enzyme assay; format: biochemical; conditions: 1b enzyme, 24 hours at 30° C.
T1 construct: Each untagged protein was expressed with an 18 amino acid C-terminal truncation to enhance the solubility; made in house; host or cells: E. coli BL21(DE3), pET21a
Method: The cDNA encoding NS5B proteins of HCV genotype 1b (Con1), a genotype 1b variant with amino acid 316 mutated from cysteine to asparagine, and genotype 2a (JFH-1), were cloned into the pET21a expression vector. Each untagged protein was expressed with an 18 amino acid C-terminal truncation to enhance the solubility. The E. coli competent cell line BL21(DE3) was used for expression of the protein. Cultures were grown at 37° C. for ˜4 hours until the cultures reached an optical density of 2.0 at 600 nm. The cultures were cooled to 20° C. and induced with 1 mM IPTG. Fresh ampicillin was added to a final concentration of 50 μg/mL and the cells were grown overnight at 20° C.
The lysis buffer consisted of 20 mM Tris-HCl, pH 7.4, 500 mM NaCl, 0.5% triton X-100, 1 mM DTT, 1 mM EDTA, 20% glycerol, 0.5 mg/mL lysozyme, 10 mM MgCl2, 15 ug/mL deoxyribonuclease I, and Complete™ protease inhibitor tablets (Roche). After addition of the lysis buffer, frozen cell pellets were resuspended using a tissue homogenizer. To reduce the viscosity of the sample, aliquots of the lysate were sonicated on ice using a microtip attached to a Branson sonicator. The sonicated lysate was centrifuged at 100,000×g for 30 minutes at 4° C. and filtered through a 0.2 μm filter unit (Corning).
The protein was purified using two sequential chromatography steps: Heparin sepharose CL-6B and polyU sepharose 4B. The chromatography buffers were identical to the lysis buffer but contained no lysozyme, deoxyribonuclease I, MgCl2 or protease inhibitor and the NaCl concentration of the buffer was adjusted according to the requirements for charging the protein onto the column. Each column was eluted with a NaCl gradient which varied in length from 5-50 column volumes depending on the column type. […] The enzyme was aliquoted and stored at −80° C.
An on-bead solid phase homogeneous assay was used in a 384-well format to assess NS5B inhibitors (WangY-K, Rigat K, Roberts S, and Gao M (2006) Anal Biochem, 359: 106-111). The biotinylated oligo dT12 primer was captured on streptavidin-coupled imaging beads (GE, RPNQ0261) by mixing primer and beads in 1× buffer and incubating at room temperature for three hours. Unbound primer was removed after centrifugation. The primer-bound beads were resuspended in 3× reaction mix (20 mM Hepes buffer, pH 7.5, dT primer coupled beads, poly A template, ^3H-UTP, and RNAse inhibitor (Promega N2515)). Compounds were serially diluted 1:3 in DMSO and aliquoted into assay plates. Equal volumes (5 μL) of water, 3× reaction mix, and enzyme in 3× assay buffer (60 mM Hepes buffer, pH 7.5, 7.5 mM MgCl2, 7.5 mM KCl, 3 mM DTT, 0.03 mg/mL BSA, 6% glycerol) were added to the diluted compound on the assay plate. Final concentration of components in 384-well assay: 0.36 nM template, 15 nM primer, 0.29 μM ^3H-UTP (0.3 μCi, 1.6 U/μL RNAse inhibitor, 7 nM NS5B enzyme, 0.01 mg/mL BSA, 1 mM DTT, and 0.33 μg/μL beads, 20 mM Hepes buffer, pH 7.5, 2.5 mM MgCl2, 2.5 mM KCl, and 0.1% DMSO.
Reactions were allowed to proceed for 24 hours at 30° C. and terminated by the addition of 50 mM EDTA (5 μL). After incubating for at least 15 minutes, plates were read on an Amersham LEADseeker multimodality imaging system.
IC50 values for compounds were determined using ten different [I]. IC50 values were calculated from the inhibition using the four-parameter logistic formula y=A+((B−A)/(1+((C/x)^D))), where A and B denote minimal and maximal % inhibition, respectively, C is the IC50, D is hill slope and x represents compound concentration.

T1 sequence (Q9WMX2 2420-2992): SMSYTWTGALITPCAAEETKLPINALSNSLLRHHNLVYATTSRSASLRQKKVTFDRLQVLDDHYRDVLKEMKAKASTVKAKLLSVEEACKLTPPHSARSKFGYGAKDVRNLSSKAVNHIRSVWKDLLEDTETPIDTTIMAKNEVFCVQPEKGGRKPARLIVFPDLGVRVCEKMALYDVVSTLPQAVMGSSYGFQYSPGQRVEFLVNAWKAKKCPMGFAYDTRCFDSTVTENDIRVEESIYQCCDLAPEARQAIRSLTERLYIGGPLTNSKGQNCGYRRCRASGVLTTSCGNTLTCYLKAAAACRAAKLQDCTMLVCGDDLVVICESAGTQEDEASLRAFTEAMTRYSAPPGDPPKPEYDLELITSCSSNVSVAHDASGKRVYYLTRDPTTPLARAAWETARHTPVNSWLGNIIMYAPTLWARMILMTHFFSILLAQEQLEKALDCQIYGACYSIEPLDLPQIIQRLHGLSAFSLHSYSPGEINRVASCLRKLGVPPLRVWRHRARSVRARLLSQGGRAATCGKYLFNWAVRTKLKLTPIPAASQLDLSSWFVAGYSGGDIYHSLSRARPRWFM

| Compound | EC50 ([1]; Hepatitis C virus, Huh-7, 72 h) [nM] | IC50 [2] [nM] | EC50 [1] [nM] |
| --- | --- | --- | --- |
| CNC(=O)c1c(-c2ccc(F)cc2)oc2cc(CCC(F)(F)F)c(-c3cccc(C(=O)NC45CC(C4)C5)c3)c(F)c12 | 10 | – | – |
| CNC(=O)c1c(-c2ccc(F)cc2)oc2nc(CCC(F)(F)F)c(-c3ccc(F)c(C(=O)NC45CC(C4)C5)c3)cc12 | 5.05 | 9.4 | – |
| CNC(=O)c1c(-c2ccc(F)cc2)oc2cc(N)c(-c3ccc(OC)c(C(=O)NC45CC(C4)C5)c3)cc12 | 10 | – | – |
| CNC(=O)c1c(-c2ccc(F)cc2)oc2nc(CCC(F)(F)F)c(-c3cncc(C(=O)NC45CC(C4)C5)c3)cc12 | 3.3 | 20 | – |
| CNC(=O)Cc1cc2oc(-c3ccc(F)cc3)c(C(=O)NC)c2cc1-c1ccc(F)c(C(=O)NC23CC(C2)C3)c1 | 50 | – | – |
| CNC(=O)c1c(-c2ccc(F)cc2)oc2nc(NCC(F)(F)F)c(-c3ccc(OC)c(C(=O)NC45CC(C4)C5)c3)cc12 | 3.72 | 20 | – |
| CNC(=O)c1c(-c2ccc(F)cc2)oc2cc(CC(N)=O)c(-c3cccc(C(=O)NC45CC(C4)C5)c3)cc12 | 20 | 40 | – |
| CCCc1cc2oc(-c3ccc(F)cc3)c(C(=O)NC)c2cc1-c1cc(C(=O)NC23CC(C2)C3)c(F)cc1C | 30 | 20 | – |
| CNC(=O)c1c(-c2ccc(F)cc2)oc2nc(OC)c(-c3ccc(F)c(C(=O)NC45CC(C4)C5)c3)cc12 | 20 | 90 | – |
| CNC(=O)c1c(-c2ccc(F)cc2)oc2cc(CS(C)(=O)=O)c(-c3cccc(C(=O)NC45CC(C4)C5)c3)cc12 | 70 | – | – |
| CNC(=O)c1c(-c2ccc(F)cc2)oc2nc(N(CC(F)(F)F)S(C)(=O)=O)c(-c3cccc(C(=O)NC45CC(C4)C5)c3)cc12 | 20 | – | – |
| CNC(=O)c1c(-c2ccc(F)cc2)oc2cc(COC)c(-c3cccc(C(=O)NC45CC(C4)C5)c3)c(F)c12 | 7.88 | 210 | – |
| CNC(=O)c1c(-c2ccc(F)cc2)oc2ncc(-c3ccc(F)c(C(=O)NC45CC(C4)C5)c3)cc12 | 50 | 220 | – |
| CNC(=O)c1c(-c2ccc(F)cc2)oc2cc(CCC(F)(F)F)c(-c3cc(C(=O)NC45CC(C4)C5)c(OC)cc3C)cc12 | 40 | 50 | – |
| CNC(=O)c1c(-c2ccc(F)cc2)oc2nc(CCC(F)(F)F)c(-c3cc(F)cc(C(=O)NC45CC(C4)C5)c3)cc12 | 10 | 30 | – |
| CNC(=O)c1c(-c2ccc(F)cc2)oc2cc(CCCF)c(-c3cccc(C(=O)NC45CC(C4)C5)c3)cc12 | 3.33 | 3.29 | – |
| CCC(C)c1cc2oc(-c3ccc(F)cc3)c(C(=O)NC)c2cc1-c1cccc(C(=O)NC23CC(C2)C3)c1 (stereo not shown) [drawing 304] | 10 | 5.87 | – |
| CNC(=O)c1c(-c2ccc(F)cc2)oc2nc(NCC(F)F)c(-c3cccc(C(=O)NC45CC(C4)C5)c3)cc12 | 4.3 | 8.63 | – |
| CNC(=O)c1c(-c2ccc(F)cc2)oc2cc(CCNC(=O)OC)c(-c3cccc(C(=O)NC45CC(C4)C5)c3)cc12 | 20 | 20 | – |
| CCCc1cc2oc(-c3ccc(F)cc3)c(C(=O)NC)c2cc1-c1ccc(F)c(C(=O)NC23CC(C2)C3)c1 | 8.79 | 10 | – |
| CNC(=O)c1c(-c2ccc(F)cc2)oc2nc(CCC(F)(F)F)c(-c3cccc(C(=O)NC45CC(C4)C5)c3)cc12 | 4.07 | 5.85 | – |
| CCCc1cc2oc(-c3ccc(F)cc3)c(C(=O)NC)c2cc1-c1cccc(C(=O)NC23CC(C2)C3)c1 | 5.82 | 20 | – |

| Compound | EC50 ([1]; Hepatitis C virus, Huh-7, 72 h) [nM] | IC50 [2] [nM] | EC50 [1] [nM] |
| --- | --- | --- | --- |
| CNC(=O)c1c(-c2ccc(F)cc2)oc2cc(CC(=O)N(C)C)c(-c3ccc(F)c(C(=O)NC45CC(C4)C5)c3)cc12 | 520 | – | – |
| CNC(=O)c1c(-c2ccc(F)cc2)oc2nc(NCC(F)(F)F)c(-c3cccc(C(=O)NC45CC(C4)C5)c3)cc12 | 3.58 | – | – |
| CNC(=O)c1c(-c2ccc(F)cc2)oc2cc(COC)c(-c3cccc(C(=O)NC45CC(C4)C5)c3)cc12 | 6.21 | – | – |
| CNC(=O)c1c(-c2ccc(F)cc2)oc2cc(CC(=O)O)c(-c3ccc(F)c(C(=O)NC45CC(C4)C5)c3)cc12 | 8090 | – | – |
| CNC(=O)c1c(-c2ccc(F)cc2)oc2cc(OCC(F)(F)F)c(-c3cccc(C(=O)NC45CC(C4)C5)c3)cc12 | 10 | – | – |
| CNC(=O)c1c(-c2ccc(F)cc2)oc2cc(CC(=O)OC)c(-c3cccc(C(=O)NC45CC(C4)C5)c3)cc12 | 8.19 | 8.01 | – |
| CNC(=O)c1c(-c2ccc(F)cc2)oc2nc(NCC(F)(F)F)c(-c3cnc(OC)c(C(=O)NC45CC(C4)C5)c3)cc12 | 5.79 | 6.54 | – |
| CCNc1cc2oc(-c3ccc(F)cc3)c(C(=O)NC)c2cc1-c1cc(C(=O)NC23CC(C2)C3)c(F)cc1F | 10 | 20 | – |
| CNC(=O)c1c(-c2ccc(F)cc2)oc2cc(CCC(F)(F)F)c(-c3ccc(F)c(C(=O)NC45CC(C4)C5)c3)c(F)c12 | 40 | – | – |
| CCC(C)c1cc2oc(-c3ccc(F)cc3)c(C(=O)NC)c2cc1-c1cccc(C(=O)NC23CC(C2)C3)c1 (stereo not shown) [drawing 305] | – | – | 20 |
| CCCc1nc2oc(-c3ccc(F)cc3)c(C(=O)NC)c2cc1-c1cccc(C(=O)NC23CC(C2)C3)c1 | 5.26 | 7.73 | – |
| CNC(=O)c1c(-c2ccc(F)cc2)oc2cc(CS(C)(=O)=O)c(-c3ccc(F)c(C(=O)NC45CC(C4)C5)c3)cc12 | 70 | – | – |
| CNC(=O)c1c(-c2ccc(F)cc2)oc2nc(CCC(F)(F)F)c(-c3csc(C(=O)NC45CC(C4)C5)c3)cc12 | 20 | – | – |
| CNC(=O)c1c(-c2ccc(F)cc2)oc2cc(CC(=O)N(C)C)c(-c3cccc(C(=O)NC45CC(C4)C5)c3)cc12 | 310 | – | – |
| CNC(=O)Cc1cc2oc(-c3ccc(F)cc3)c(C(=O)NC)c2cc1-c1cccc(C(=O)NC23CC(C2)C3)c1 | 50 | – | – |
| CNC(=O)c1c(-c2ccc(F)cc2)oc2cc(CC(=O)O)c(-c3cccc(C(=O)NC45CC(C4)C5)c3)cc12 | > 10000 | – | – |
| CNC(=O)c1c(-c2ccc(F)cc2)oc2cc(CC(N)=O)c(-c3ccc(F)c(C(=O)NC45CC(C4)C5)c3)cc12 | 10 | – | – |
| CNC(=O)c1c(-c2ccc(F)cc2)oc2cc(CCC(F)(F)F)c(-c3cccc(C(=O)NC45CC(C4)C5)c3)cc12 | 30 | – | – |
| CNC(=O)c1c(-c2ccc(F)cc2)oc2cc(CC(=O)OC)c(-c3ccc(F)c(C(=O)NC45CC(C4)C5)c3)cc12 | 20 | – | – |
| CNC(=O)c1c(-c2ccc(F)cc2)oc2cc(CCCOC(=O)c3ccccc3)c(-c3cccc(C(=O)NC45CC(C4)C5)c3)cc12 | 140 | – | – |
| CNC(=O)c1c(-c2ccc(F)cc2)oc2nc(NCC(F)(F)F)c(-c3cc(C(=O)NC45CC(C4)C5)ccc3OC)cc12 | 9.14 | – | – |

— patent US9738653B2, “Fused furans for the treatment of hepatitis C” (BRISTOL-MYERS SQUIBB COMPANY, priority 2013, dated 2017)
